# Laboratory results published in PMC9387934, “Randomized single oral dose phase 1 study of safety, tolerability, and pharmacokinetics of Iminosugar UV-4 Hydrochloride (UV-4B) in healthy subjects” (PLoS Neglected Tropical Diseases, 2022).
# Where a name gives a salt, the structure may show the parent alone.
# Assay: Phase 1a single ascending dose study: UV-4 in pooled urine, urinary recovery and renal clearance
# Format: in vivo, human
# Conditions: urine; for Cumulative Amount Ae(0-last): corresponds to Ae(0-48); for Cumulative Percent fe(0-last): corresponds to fe(0-48)
# Protocol: Serial blood samples were collected at pre-dose (0 hour) and 0.5, 1, 1.5, 2, 2.5, 3, 4, 6, 9, 12, 18, 24, 36, and 48 hours post-dose for assessment of UV-4 concentrations in plasma. Pooled urine samples were collected at pre-dose (-12 to 0 hour) and from 0 to 6, 6 to 12, 12 to 24, and 24 to 48 hours post-dose for assessment of UV-4 concentrations in urine. Plasma and urine concentrations of UV-4 were determined by means of validated, sensitive, and specific high-performance liquid chromatography/tandem mass spectrometric (LC-MS/MS) assays. UV-4 plasma and urine concentrations and PK parameters were listed and summarized by dose, as appropriate. Only the 48 subjects who received active investigational product were included in the PK analysis population.
# 8.2.3 Specimen Preparation, Handling, and Shipping
# 8.2.3.1 Instructions for Specimen Preparation, Handling, and Storage
# The collected PK blood samples (2 mL) will be placed on ice after blood draw, and within 1 hour centrifuged at room temperature at approximately 3000 revolutions per minute for 15 minutes. Plasma will then be harvested and split into 4 aliquots of approximately 250 μ L and stored frozen at -20°C until shipped.
# Urine samples (approximately 10 mL) for determination of UV-4 concentrations in urine will be taken from the total volume provided during each collection period. The total volume of each urine collection will be recorded along with the start/stop time for each urine collection interval.
# Analysis of plasma and urine for UV-4 will be performed by the qualified bioanalytical laboratory, Quintiles Bioservices, Inc., Ithaca, New York 14950. Instructions for the proper preparation, handling, storage and shipping of specimens will be provided separately in a study-specific laboratory manual (i.e., Biopacket).
# 8.2.3.2 Specimen Shipment […]
# The following single-dose urine PK parameters will be estimated from the UV-4 urine concentration-time data collected, as appropriate:
# Ae Amount of UV-4 excreted in urine unchanged, calculated for each collection interval and cumulatively across intervals fe Fraction of UV-4 excreted in urine unchanged, calculated for each collection interval and cumulatively across intervals […]
# Additional UV-4 PK parameters may be calculated at the discretion of the […]
# Plasma concentrations and plasma and urine PK parameters will be summarized by treatment using descriptive statistics, as appropriate. Figures for the arithmetic mean (and SD) concentration-time data will be presented for all doses on both a linear and semi-logarithmic scale. Individual concentration-time data will be graphically presented on linear and semi-logarithmic scales. Scatter plots of individual and geometric mean PK parameters versus dose will be presented. Additional graphical presentations of PK data may be added at the discretion of the PK analyst.
# Dose proportionality of Cmax, AUC(0-last), and AUC(0-inf) will be assessed graphically and statistically using the power model approach with the logarithm of PK parameters AUC(0-inf) and Cmax as the dependent variables and the logarithm of the dose as the independent variable: ([AUC(0-inf), AUC(0-last), or Cmax]=α *doseβ).
# 11.4.7 Deviation from Original Analysis Plan
# Deviations from the formal statistical analysis plan will be noted in the final Clinical Study
# [1] = Cohort 4, 90 mg single oral dose, Median
# [2] = Cohort 5, 180 mg single oral dose, Ar Mean
# [3] = Cohort 5, 180 mg single oral dose, Median
# [4] = Cohort 6, 360 mg single oral dose, Ar Mean
# [5] = Cohort 6, 360 mg single oral dose, Median
# [6] = Cohort 7, 720 mg single oral dose, Ar Mean
# [7] = Cohort 7, 720 mg single oral dose, Median
# [8] = Cohort 8, 1000 mg single oral dose, Ar Mean
# [9] = Cohort 8, 1000 mg single oral dose, Median
structure (smiles),measurement,setting,value
"COCCCCCCCCCN1C[C@H](O)[C@@H](O)[C@H](O)[C@H]1CO [UV-4B, N-(9’-methoxynonyl)-1-deoxynojirimycin hydrochloride]",By-Interval Amount Ae(12-24),[1],4.01 mg
same,By-Interval Amount Ae(24-48),[1],1.50 mg
same,By-Interval Percent fe(0-6),[1],43.6%
same,By-Interval Percent fe(6-12),[1],7.07%
same,By-Interval Percent fe(12-24),[1],4.46%
same,By-Interval Percent fe(24-48),[1],1.66%
same,Cumulative Amount Ae(0-12),[1],44.2 mg
same,Cumulative Amount Ae(0-24),[1],47.8 mg
same,Cumulative Percent fe(0-12),[1],49.1%
same,Cumulative Percent fe(0-24),[1],53.1%
same,Cumulative Amount Ae(0-last),[1],49.7 mg
same,Cumulative Percent fe(0-last),[1],55.3%
same,By-Interval Amount Ae(0-6),[2],77.5 mg
same,By-Interval Amount Ae(6-12),[2],12.1 mg
same,By-Interval Amount Ae(12-24),[2],6.06 mg
same,By-Interval Amount Ae(24-48),[2],2.43 mg
same,By-Interval Percent fe(0-6),[2],43.0%
same,By-Interval Percent fe(6-12),[2],6.74%
same,By-Interval Percent fe(12-24),[2],3.37%
same,By-Interval Percent fe(24-48),[2],1.35%
same,Cumulative Amount Ae(0-12),[2],89.6 mg
same,Cumulative Amount Ae(0-24),[2],95.7 mg
same,Cumulative Percent fe(0-12),[2],49.8%
same,Cumulative Percent fe(0-24),[2],53.1%
same,Cumulative Amount Ae(0-last),[2],97.9 mg
same,Cumulative Percent fe(0-last),[2],54.5%
same,By-Interval Amount Ae(0-6),[3],77.7 mg
same,By-Interval Amount Ae(6-12),[3],12.1 mg
same,By-Interval Amount Ae(12-24),[3],5.76 mg
same,By-Interval Amount Ae(24-48),[3],2.20 mg
same,By-Interval Percent fe(0-6),[3],43.2%
same,By-Interval Percent fe(6-12),[3],6.72%
same,By-Interval Percent fe(12-24),[3],3.20%
same,By-Interval Percent fe(24-48),[3],1.22%
same,Cumulative Amount Ae(0-12),[3],89.5 mg
same,Cumulative Amount Ae(0-24),[3],96.8 mg
same,Cumulative Percent fe(0-12),[3],49.7%
same,Cumulative Percent fe(0-24),[3],53.8%
same,Cumulative Amount Ae(0-last),[3],99.8 mg
same,Cumulative Percent fe(0-last),[3],55.6%
same,By-Interval Amount Ae(0-6),[4],159 mg
same,By-Interval Amount Ae(6-12),[4],19.1 mg
same,By-Interval Amount Ae(12-24),[4],7.09 mg
same,By-Interval Amount Ae(24-48),[4],2.83 mg
same,By-Interval Percent fe(0-6),[4],44.2%
same,By-Interval Percent fe(6-12),[4],5.32%
same,By-Interval Percent fe(12-24),[4],1.97%
same,By-Interval Percent fe(24-48),[4],0.787%
same,Cumulative Amount Ae(0-12),[4],178 mg
same,Cumulative Amount Ae(0-24),[4],185 mg
same,Cumulative Percent fe(0-12),[4],49.5%
same,Cumulative Percent fe(0-24),[4],51.5%
same,Cumulative Amount Ae(0-last),[4],188 mg
same,Cumulative Percent fe(0-last),[4],52.3%
same,By-Interval Amount Ae(0-6),[5],153 mg
same,By-Interval Amount Ae(6-12),[5],20.0 mg
same,By-Interval Amount Ae(12-24),[5],6.73 mg
same,By-Interval Amount Ae(24-48),[5],2.89 mg
same,By-Interval Percent fe(0-6),[5],42.4%
same,By-Interval Percent fe(6-12),[5],5.55%
same,By-Interval Percent fe(12-24),[5],1.87%
same,By-Interval Percent fe(24-48),[5],0.803%
same,Cumulative Amount Ae(0-12),[5],172 mg
same,Cumulative Amount Ae(0-24),[5],178 mg
same,Cumulative Percent fe(0-12),[5],47.8%
same,Cumulative Percent fe(0-24),[5],49.5%
same,Cumulative Amount Ae(0-last),[5],182 mg
same,Cumulative Percent fe(0-last),[5],50.4%
same,By-Interval Amount Ae(0-6),[6],301 mg
same,By-Interval Amount Ae(6-12),[6],42.5 mg
same,By-Interval Amount Ae(12-24),[6],11.7 mg
same,By-Interval Amount Ae(24-48),[6],4.09 mg
same,By-Interval Percent fe(0-6),[6],41.8%
same,By-Interval Percent fe(6-12),[6],5.90%
same,By-Interval Percent fe(12-24),[6],1.63%
same,By-Interval Percent fe(24-48),[6],0.569%
same,Cumulative Amount Ae(0-12),[6],344 mg
same,Cumulative Amount Ae(0-24),[6],355 mg
same,Cumulative Percent fe(0-12),[6],47.7%
same,Cumulative Percent fe(0-24),[6],49.4%
same,Cumulative Amount Ae(0-last),[6],360 mg
same,Cumulative Percent fe(0-last),[6],49.9%
same,By-Interval Amount Ae(0-6),[7],285 mg
same,By-Interval Amount Ae(6-12),[7],45.7 mg
same,By-Interval Amount Ae(12-24),[7],12.1 mg
same,By-Interval Amount Ae(24-48),[7],4.53 mg
same,By-Interval Percent fe(0-6),[7],39.6%
same,By-Interval Percent fe(6-12),[7],6.34%
same,By-Interval Percent fe(12-24),[7],1.68%
same,By-Interval Percent fe(24-48),[7],0.630%
same,Cumulative Amount Ae(0-12),[7],332 mg
same,Cumulative Amount Ae(0-24),[7],345 mg
same,Cumulative Percent fe(0-12),[7],46.1%
same,Cumulative Percent fe(0-24),[7],47.9%
same,Cumulative Amount Ae(0-last),[7],350 mg
same,Cumulative Percent fe(0-last),[7],48.5%
same,By-Interval Amount Ae(0-6),[8],428 mg
same,By-Interval Amount Ae(6-12),[8],53.7 mg
same,By-Interval Amount Ae(12-24),[8],16.4 mg
same,By-Interval Amount Ae(24-48),[8],5.21 mg
same,By-Interval Percent fe(12-24),[8],1.64%
same,Cumulative Amount Ae(0-12),[8],482 mg
same,Cumulative Amount Ae(0-24),[8],498 mg
same,Cumulative Amount Ae(0-last),[8],504 mg
same,By-Interval Amount Ae(0-6),[9],421 mg
same,By-Interval Amount Ae(6-12),[9],56.1 mg
same,By-Interval Amount Ae(12-24),[9],16.6 mg
same,By-Interval Amount Ae(24-48),[9],5.03 mg
same,Cumulative Amount Ae(0-12),[9],475 mg
same,Cumulative Amount Ae(0-24),[9],496 mg
same,Cumulative Amount Ae(0-last),[9],501 mg
